Tested on: healthy participants
Test: Conner's Continuous Performance Task (CPT)
Type: in vivo, human
Details: for CPT Commission Errors / CPT Hit Response Time / CPT Omission Errors / CPT Perseverations: mean (SD)
Procedure: (§1) The Conner’s Continuous Performance Task (CPT; [32]) tested sustained attention to a target. Participants saw a string of letters appearing one at a time on a computer screen. Participants were asked to press the spacebar whenever the target stimulus (any letter except for the X) appeared. Participants were asked to withhold responding when a X was presented, which is the non-target stimulus. A set of 15 outcome measures derived from the task report were recorded as key variables. These measures include Hit RT, Hit Standard Error, Commission, Omission and Perseveration errors, Sensitivity, Response style, and the Hit standard error across different interstimulus intervals.
Cognitive data: In this exploratory analysis, each outcome variable of the cognitive data was examined in a mixed model analysis of variance with one between-subjects factor of VU319 dose (0, 60, 120, 240, 400, 600 mg) and a within-subjects factor of testing session (pre-dose vs. post-dost administration). Post-hoc analysis compared each of the VU319 dose cohorts against the placebo group. Because the participants were healthy adults with normal cognitive function, we considered effects between no reductions in function to small improvement (d = 0.0–0.20) to be a positive result. For the food effect study, only the participants who received VU319 were examined due to the disproportionately small placebo group (n = 2). A within-subjects ANOVA including food condition (fasted/fed) and testing session (pre-dose vs. post-dose administration) was performed on each outcome variable.
as §1, with “(Conners et al., 2000))” for “[32])”

[1] = Food effect study 120 mg, Fasting, Post-Drug, n = 9
[2] = Food effect study 120 mg, Fasting, Pre-Drug, n = 9
[3] = Food effect study 120 mg, Fed, Post-Drug, n = 9
[4] = Food effect study 120 mg, Fed, Pre-Drug, n = 9

Cn1cc2c(-c3cc(F)c(CN4Cc5ncccc5C4=O)c(F)c3)cccc2n1 [VU319]
CPT Hit RT, 600 mg vs placebo, effect size d (600 mg, pre-dose to post-dose): 1.48
CPT Hit RT, pre- to post-dose change, mean difference vs placebo (600 mg, p = 0.012): -28.12
CPT Commission Errors [1]: 12.6 (6.62)
CPT Hit Response Time [1]: 387.85 (64.33) ms
CPT Omission Errors [1]: 4.33 (7.16)
CPT Perseverations [1]: 2.56 (6.93)
CPT Commission Errors [2]: 11.6 (5.68)
CPT Hit Response Time [2]: 395.78 (51.66) ms
CPT Omission Errors [2]: 4.56 (10.4)
CPT Perseverations [2]: 3.89 (11.7)
CPT Commission Errors [3]: 12.3 (6.2)
CPT Hit Response Time [3]: 381.1 (71.8) ms
CPT Omission Errors [3]: 2 (4.24)
CPT Perseverations [3]: 1.78 (2.44)
CPT Commission Errors [4]: 11.1 (5.58)
CPT Hit Response Time [4]: 381.6 (59.56) ms
CPT Omission Errors [4]: 1.22 (1.48)
CPT Perseverations [4]: 0.44 (1.01)
CPT Commission Errors (SAD study, 60 mg, Post-Drug): 13.33 (4.37)
CPT Hit Response Time (SAD study, 60 mg, Post-Drug): 407.08 (66.44) ms
CPT Omission Errors (SAD study, 60 mg, Post-Drug): 3.33 (4.55)
CPT Perseverations (SAD study, 60 mg, Post-Drug): 0 (0)
CPT Commission Errors (SAD study, 60 mg, Pre-Drug): 12.83 (4.07)
CPT Hit Response Time (SAD study, 60 mg, Pre-Drug): 393.27 (46.65) ms
CPT Omission Errors (SAD study, 60 mg, Pre-Drug): 1 (1.27)
CPT Perseverations (SAD study, 60 mg, Pre-Drug): 0.33 (0.52)
CPT Commission Errors (SAD study, 120 mg, Post-Drug): 15.33 (5.92)
CPT Hit Response Time (SAD study, 120 mg, Post-Drug): 356.2 (29.58) ms
CPT Omission Errors (SAD study, 120 mg, Post-Drug): 4.67 (5.28)
CPT Perseverations (SAD study, 120 mg, Post-Drug): 1.5 (1.98)
CPT Commission Errors (SAD study, 120 mg, Pre-Drug): 15.5 (6.66)
CPT Hit Response Time (SAD study, 120 mg, Pre-Drug): 361.23 (27.25) ms
CPT Omission Errors (SAD study, 120 mg, Pre-Drug): 0.83 (0.75)
CPT Perseverations (SAD study, 120 mg, Pre-Drug): 0 (0)
CPT Commission Errors (SAD study, 240 mg, Post-Drug): 12 (1.55)
CPT Hit Response Time (SAD study, 240 mg, Post-Drug): 372.94 (64.52) ms
CPT Omission Errors (SAD study, 240 mg, Post-Drug): 2.33 (2.58)
CPT Perseverations (SAD study, 240 mg, Post-Drug): 0.83 (1.6)
CPT Commission Errors (SAD study, 240 mg, Pre-Drug): 11.33 (3.62)
CPT Hit Response Time (SAD study, 240 mg, Pre-Drug): 372.21 (43.06) ms
CPT Omission Errors (SAD study, 240 mg, Pre-Drug): 1 (1.27)
CPT Perseverations (SAD study, 240 mg, Pre-Drug): 0.5 (1.23)
CPT Commission Errors (SAD study, 400 mg, Post-Drug): 9.5 (3.08)
CPT Hit Response Time (SAD study, 400 mg, Post-Drug): 365.85 (33.44) ms
CPT Omission Errors (SAD study, 400 mg, Post-Drug): 1.67 (1.97)
CPT Perseverations (SAD study, 400 mg, Post-Drug): 0.33 (0.82)
CPT Commission Errors (SAD study, 400 mg, Pre-Drug): 10.33 (2.81)
CPT Hit Response Time (SAD study, 400 mg, Pre-Drug): 374.41 (25.8) ms
CPT Omission Errors (SAD study, 400 mg, Pre-Drug): 0.67 (1.2)
CPT Perseverations (SAD study, 400 mg, Pre-Drug): 0.17 (0.41)
CPT Commission Errors (SAD study, 600 mg, Post-Drug): 17 (8.49)
CPT Hit Response Time (SAD study, 600 mg, Post-Drug): 356.18 (45.08) ms
CPT Omission Errors (SAD study, 600 mg, Post-Drug): 1.5 (2.35)
CPT Perseverations (SAD study, 600 mg, Post-Drug): 1.5 (3.21)
CPT Commission Errors (SAD study, 600 mg, Pre-Drug): 13 (5.66)
CPT Hit Response Time (SAD study, 600 mg, Pre-Drug): 387.39 (51.74) ms
CPT Omission Errors (SAD study, 600 mg, Pre-Drug): 1.33 (3.27)
CPT Perseverations (SAD study, 600 mg, Pre-Drug): 0.33 (0.82)
CPT hit response time, dose by time interaction, effect size d (SAD study, p = 0.063, faster following higher doses): 1.19
CPT, effects of food or time (food effect study, 120 mg): no significant effects of food or time
